Reference: patent US20220024921A1, “1,3,4-OXADIAZOLONE COMPOUND AND PHARMACEUTICAL” (NIPPON SHINYAKU CO., LTD., priority 2018, published 2022)
Counter-ions that a name gives are not always drawn.

How the values were obtained:
[1] = molecular target: PIM1 transgenic cells (Ba/F3) (Homo sapiens, UniProt P11309); experiment: Proliferation inhibitory effect on PIM1 transgenic cells; assay type: cell-based, mouse; conditions: proliferation inhibition, 72 hours, Cell Counting Kit-8, read-out: PIM1 IC50
Chain of PIM1 transgenic cells (Ba/F3) (P11309 whole entry, stated change not applied): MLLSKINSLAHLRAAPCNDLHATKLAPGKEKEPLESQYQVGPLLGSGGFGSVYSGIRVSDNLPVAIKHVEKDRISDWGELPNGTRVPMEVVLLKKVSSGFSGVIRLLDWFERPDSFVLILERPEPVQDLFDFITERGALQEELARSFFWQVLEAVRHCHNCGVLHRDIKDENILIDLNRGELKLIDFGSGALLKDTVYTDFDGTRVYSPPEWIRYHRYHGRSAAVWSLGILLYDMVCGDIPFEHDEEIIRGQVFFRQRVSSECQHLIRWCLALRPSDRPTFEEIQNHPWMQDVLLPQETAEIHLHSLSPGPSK
How it was run: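 Mouse Ba/F3 pro-B cells were retrovirally transduced with human PIM1 so that their proliferation depends on PIM1. Cells were treated with compound at 1–10000 nM final for 72 h, then read by CCK-8 (OD450−OD650). Inhibition was set against DMSO (0%) and no-cell blank (100%), and IC50 was obtained by two-parameter logistic regression.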

[2] = molecular target: T1, PIM1 serine/threonine kinase (Homo sapiens, UniProt P11309); experiment: PIM1 serine/threonine kinase inhibitory effect; assay type: biochemical; conditions: PIM1 serine/threonine kinase activity; ATP 40 μM; 30° C., 30 minutes
T1 construct: purchased Carna Bioscience, Inc
T1 sequence (P11309 whole entry): as the sequence (P11309 whole entry, stated change not applied) above
How it was run: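 Recombinant PIM1 (0.15 μg/ml final) with 0.5 μM biotinylated substrate and 40 μM ATP in pH 7.0 HEPES/MgCl2 buffer, 30 min at 30° C. Compound range was 0.01–10000 nM final, n=2. HTRF detection with streptavidin-XL665 and anti-phospho antibody-cryptate, 1 h; IC50 from non-linear regression of the 665/620 ratio.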

SMILES | GI50 [1] | IC50 [2]
O=c1[nH]nc(-c2ccc(Cl)c(NCC3CCNCC3)c2)o1 [Example 47, 5-(4-chloro-3-{[(piperidin-4-yl)methyl]amino}phenyl)-1,3,4-oxadiazol-2(3H)-one hydrochloride] | 820 nM | 7.6 nM
CCC1(CNc2cc(-c3n[nH]c(=O)o3)ccc2C(F)(F)F)CCNCC1 [Example 122, 5-[3-{[(4-ethylpiperidin-4-yl)methyl]amino}-4-(trifluoromethyl)phenyl]-1,3,4-oxadiazol-2(3H)-one hydrochloride] | 220 nM | 6.5 nM
Cc1cc(Cl)c(N[C@@H](C)C2CCNCC2)cc1-c1n[nH]c(=O)o1 [Example 94, 5-(4-chloro-2-methyl-5-{[(1S)-1-(piperidin-4-yl)ethyl]amino}phenyl)-1,3,4-oxadiazol-2(3H)-one hydrochloride] | 140 nM | 8.4 nM
CO/N=C1\CCN([C@@H](C)[C@H]2CCNC[C@H]2C)c2cc(-c3n[nH]c(=O)o3)cc(F)c21 [Example 246, 5-[(4E)-5-fluoro-4-(methoxyimino)-1-{(1S)-1-[(3S,4S)-3-methylpiperidin-4-yl]ethyl}-1,2,3,4-tetrahydroquinolin-7-yl]-1,3,4-oxadiazol-2(3H)-one hydrochloride] | 4900 nM | 1.9 nM
N[C@H]1CC[C@H](Nc2cc(-c3n[nH]c(=O)o3)cc(F)c2C(F)(F)F)CC1 [Example 36, 5-[3-{[(1r,4r)-4-aminocyclohexyl]amino}-5-fluoro-4-(trifluoromethyl)phenyl]-1,3,4-oxadiazol-2(3H)-one hydrochloride] | 570 nM | 3.1 nM
O=c1[nH]nc(-c2ccc(C(F)(F)F)c(NC[C@@H]3CCCNC3)c2)o1 [Example 54, 5-[3-({[(3R)-piperidin-3-yl]methyl}amino)-4-(trifluoromethyl)phenyl]-1,3,4-oxadiazol-2(3H)-one hydrochloride] | 1200 nM | 13 nM
C[C@H](Nc1cc(-c2n[nH]c(=O)o2)ccc1C(F)(F)F)C1CC2(CCNCC2)C1 [Example 142, 5-[3-{[(1S)-1-(7-azaspiro[3.5]nonan-2-yl)ethyl]amino}-4-(trifluoromethyl)phenyl]-1,3,4-oxadiazol-2(3H)-one hydrochloride] | 220 nM | 11 nM
NCCC1CCN(c2cc(-c3n[nH]c(=O)o3)ccc2C(F)(F)F)CC1 [Example 10, 5-{3-[4-(2-aminoethyl)piperidin-1-yl]-4-(trifluoromethyl)phenyl}-1,3,4-oxadiazol-2(3H)-one hydrochloride] | 630 nM | 6.6 nM
O=c1[nH]nc(-c2ccc(C(F)(F)F)c(/C=C/C3CCNCC3)c2)o1 [Example 30, 5-{3-[(E)-2-(piperidin-4-yl)ethenyl]-4-(trifluoromethyl)phenyl}-1,3,4-oxadiazol-2(3H)-one hydrochloride] | 970 nM | 24 nM
C[C@H](Nc1cc(-c2n[nH]c(=O)o2)ccc1C(F)(F)F)[C@@H]1CCC[C@H](N)C1 [Example 191, 5-[3-({(1S)-1-[(1R,3S)-3-aminocyclohexyl]ethyl}amino)-4-(trifluoromethyl)phenyl]-1,3,4-oxadiazol-2(3H)-one hydrochloride] | 160 nM | 11 nM
N[C@H]1CC[C@H](CCc2cc(-c3n[nH]c(=O)o3)ccc2C(F)(F)F)CC1 [Example 27, 5-[3-{2-[(1r,4s)-4-aminocyclohexyl]ethyl}-4-(trifluoromethyl)phenyl]-1,3,4-oxadiazol-2(3H)-one hydrochloride] | 200 nM | 4.1 nM
C[C@@H](C1CCNCC1)N1CCOc2c(F)cc(-c3n[nH]c(=O)o3)cc21 [Example 248, 5-{8-fluoro-4-[(1S)-1-(piperidin-4-yl)ethyl]-3,4-dihydro-2H-1,4-benzoxazin-6-yl}-1,3,4-oxadiazol-2(3H)-one] | 250 nM | 10 nM
C[C@H]1CNCC[C@H]1CNc1cc(-c2n[nH]c(=O)o2)ccc1C(F)(F)F [Example 141, 5-[3-({[(3R,4R)-3-methylpiperidin-4-yl]methyl}amino)-4-(trifluoromethyl)phenyl]-1,3,4-oxadiazol-2(3H)-one hydrochloride] | 250 nM | 7.1 nM

These reach a lower GI50 [1]. Values come first.

GI50 [1] | IC50 [2] | SMILES
65 nM | 3.3 nM | C[C@H](Nc1cc(-c2n[nH]c(=O)o2)ccc1C(F)(F)F)C1CCCNCC1 (stereo partly drawn) [Example 157, 5-[3-{[(1S)-1-(azepan-4-yl)ethyl]amino}-4-(trifluoromethyl)phenyl]-1,3,4-oxadiazol-2(3H)-one hydrochloride]
100 nM | 2.2 nM | CC(N)[C@H]1CC[C@H](Nc2cc(-c3n[nH]c(=O)o3)ccc2C(F)(F)F)CC1 (stereo partly shown) [Example 39, 5-[3-{[(1r,4r)-4-(1-aminoethyl)cyclohexyl]amino}-4-(trifluoromethyl)phenyl]-1,3,4-oxadiazol-2(3H)-one hydrochloride]
79 nM | 2 nM | Cc1c(Cl)cc(-c2n[nH]c(=O)o2)cc1N[C@@H](C)C1CCNCC1 [Example 98, 5-(3-chloro-4-methyl-5-{[(1S)-1-(piperidin-4-yl)ethyl]amino}phenyl)-1,3,4-oxadiazol-2(3H)-one dihydrochloride]
25 nM | 1.7 nM | C[C@H](Nc1cc(-c2n[nH]c(=O)o2)cc(F)c1C(F)(F)F)[C@H]1C[C@@H](N)C1(C)C [Example 164, 5-[3-({(1S)-1-[(1S,3R)-3-amino-2,2-dimethylcyclobutyl]ethyl}amino)-5-fluoro-4-(trifluoromethyl)phenyl]-1,3,4-oxadiazol-2(3H)-one hydrochloride]
85 nM | 2 nM | C[C@H](Nc1cc(-c2n[nH]c(=O)o2)cc(F)c1OC(F)F)C1(C)CCNCC1 [Example 213, 5-[4-(difluoromethoxy)-3-fluoro-5-{[(1S)-1-(4-methylpiperidin-4-yl)ethyl]amino}phenyl]-1,3,4-oxadiazol-2(3H)-one]
45 nM | 1.7 nM | C[C@H](Nc1cc(-c2n[nH]c(=O)o2)cc(Br)c1Cl)[C@H]1C[C@@H](N)C1 [Example 182, 5-[3-({(1S)-1-[(1s,3R)-3-aminocyclobutyl]ethyl}amino)-5-bromo-4-chlorophenyl]-1,3,4-oxadiazol-2(3H)-one hydrochloride]
28 nM | 2 nM | C[C@H](Nc1cc(-c2n[nH]c(=O)o2)cc(Br)c1Cl)[C@H]1CC[C@H](N)CC1 [Example 171, 5-[3-({(1S)-1-[(1r,4S)-4-aminocyclohexyl]ethyl}amino)-5-bromo-4-chlorophenyl]-1,3,4-oxadiazol-2(3H)-one dihydrochloride]
36 nM | 1.1 nM | Cc1cc(-c2n[nH]c(=O)o2)cc(N[C@@H](C)C2CCNCC2)c1Cl [Example 84, 5-(4-chloro-3-methyl-5-{[(1S)-1-(piperidin-4-yl)ethyl]amino}phenyl)-1,3,4-oxadiazol-2(3H)-one dihydrochloride]
61 nM | 2.1 nM | C[C@H](Nc1cc(-c2n[nH]c(=O)o2)cc(C(F)(F)F)c1Cl)C1CCNCC1 [Example 101, 5-[4-chloro-3-{[(1S)-1-(piperidin-4-yl)ethyl]amino}-5-(trifluoromethyl)phenyl]-1,3,4-oxadiazol-2(3H)-one dihydrochloride]
25 nM | 2.2 nM | C[C@H](Nc1cc(-c2n[nH]c(=O)o2)cc(F)c1C(F)(F)F)[C@H]1C[C@@H](N)C1 [Example 165, 5-[3-({(1S)-1-[(1s,3R)-3-aminocyclobutyl]ethyl}amino)-5-fluoro-4-(trifluoromethyl)phenyl]-1,3,4-oxadiazol-2(3H)-one]
73 nM | 2.1 nM | C[C@H](Nc1cc(-c2n[nH]c(=O)o2)cc(F)c1OC(F)F)C1CCNCC1 [Example 212, 5-[4-(difluoromethoxy)-3-fluoro-5-{[(1S)-1-(piperidin-4-yl)ethyl]amino}phenyl]-1,3,4-oxadiazol-2(3H)-one]
57 nM | 3.3 nM | O=c1[nH]nc(-c2ccc(C(F)(F)F)c(N[C@@H](CF)C3CCNCC3)c2)o1 [Example 152, 5-[3-{[(1R)-2-fluoro-1-(piperidin-4-yl)ethyl]amino}-4-(trifluoromethyl)phenyl]-1,3,4-oxadiazol-2(3H)-one hydrochloride]
9.2 nM | 2 nM | C[C@H](Nc1cc(-c2n[nH]c(=O)o2)cc(F)c1C(F)(F)F)[C@@H]1C[C@H](N)C1(C)C [Example 150, 5-[3-({(1S)-1-[(1R,3S)-3-amino-2,2-dimethylcyclobutyl]ethyl}amino)-5-fluoro-4-(trifluoromethyl)phenyl]-1,3,4-oxadiazol-2(3H)-one hydrochloride]
88 nM | 9.6 nM | CC1(C)[C@@H](CNc2cc(-c3n[nH]c(=O)o3)ccc2C(F)(F)F)C[C@H]1N [Example 176, 5-[3-({[(1S,3R)-3-amino-2,2-dimethylcyclobutyl]methyl}amino)-4-(trifluoromethyl)phenyl]-1,3,4-oxadiazol-2(3H)-one]
56 nM | 2.9 nM | C[C@H](Nc1cc(-c2n[nH]c(=O)o2)ccc1C(F)(F)F)[C@@H]1CC[C@@H](N)CO1 [Example 188, 5-[3-({(S)-1-[(2S,5R)-5-aminotetrahydro-2H-pyran-2-yl]ethyl}amino)-4-(trifluoromethyl)phenyl]-1,3,4-oxadiazol-2(3H)-one]
34 nM | 3.2 nM | C[C@H](Nc1cc(-c2n[nH]c(=O)o2)cc(F)c1Cl)[C@H]1C[C@@H](N)C1 [Example 178, 5-[3-({(1S)-1-[(1s,3R)-3-aminocyclobutyl]ethyl}amino)-4-chloro-5-fluorophenyl]-1,3,4-oxadiazol-2(3H)-one hydrochloride]
